Earlier results on one substance are cited in patent US20040127402A1, “Injectible composition and method for treating degenerative animal joints” (priority 2002, published 2004).

For data set [1], the system named is osteoarthritis.
The conditions of data set [2]: animal studies.

Hyaluronic acid: in data set [1] (in vivo, po), the “duration of superiority to oral medications” value was “up to six”. The “duration of positive benefits” value in data set [1] (joint lavage prior to hyaluronic acid therapy) is on record as “up to one”. Besides, the chondroprotective effect result in data set [2] is “mild chondroprotective effect”.
